Results: patent publication US11793849B2, “Method of Chinese herbal medicine extract used for treating multiple diseases caused by drug resistant bacteria infection” (priority 2016, dated 2023)

Test system: MDRAB
Assay: Checkerboard assay (combined-use MIC, FIC)
Type: cell-based, Acinetobacter baumannii
Conditions: for FIC, all strains / MIC50 of the antibiotic after combined use / MIC90 of the antibiotic after combined use / reduction of the antibiotic's MIC50 vs single use / reduction of the antibiotic's MIC90 vs single use / share of strains with FIC ≤ 0.5: 20 MDRABs
How it was run: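 Checkerboard combinations of S20b and antibiotic run per NCCLS method against ESBL E. coli, MDR A. baumannii and MDR P. aeruginosa.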

[1] = antibiotic with 60% ethanol extract
[2] = antibiotic with 95% ethanol extract
[3] = antibiotic with EA (10% ethanol extract)
[4] = antibiotic with EA (water extract)

Polymycin B [POLB]
FIC, all strains [1]: ≤ 2
MIC50 of the antibiotic after combined use [1]: 0.5 µg/mL
MIC90 of the antibiotic after combined use [1]: 4 µg/mL
reduction of the antibiotic's MIC50 vs single use [1]: 87.5%
reduction of the antibiotic's MIC90 vs single use [1]: 75%
share of strains with FIC ≤ 0.5 [1]: 15%
FIC, all strains [2]: ≤ 2
MIC50 of the antibiotic after combined use [2]: 1 µg/mL
MIC90 of the antibiotic after combined use [2]: 4 µg/mL
reduction of the antibiotic's MIC50 vs single use [2]: 75%
reduction of the antibiotic's MIC90 vs single use [2]: 75%
share of strains with FIC ≤ 0.5 [2]: 20%
FIC, all strains [3]: ≤ 2
MIC50 of the antibiotic after combined use [3]: 1 µg/mL
MIC90 of the antibiotic after combined use [3]: 4 µg/mL
reduction of the antibiotic's MIC50 vs single use [3]: 75%
reduction of the antibiotic's MIC90 vs single use [3]: 75%
share of strains with FIC ≤ 0.5 [3]: 15%
FIC, all strains [4]: ≤ 2
MIC50 of the antibiotic after combined use [4]: 1 µg/mL
MIC90 of the antibiotic after combined use [4]: 4 µg/mL
reduction of the antibiotic's MIC50 vs single use [4]: 75%
reduction of the antibiotic's MIC90 vs single use [4]: 75%
share of strains with FIC ≤ 0.5 [4]: 25%
combined-use MIC (strain A1, EA (10% ethanol extract) with POLB): 4 µg/mL
combined-use MIC (strain A1, EA (60% ethanol extract) + POLB combined): 4 µg/mL
combined-use MIC (strain A1, EA (95% ethanol extract) + POLB combined): 4 µg/mL
combined-use MIC (strain A1, EA (water extract) with POLB): 4 µg/mL
single-use MIC (strain A1, EA=60% ethanol extract): 8 µg/mL
single-use MIC (strain A1, EA=95% ethanol extract): 8 µg/mL
combined-use MIC (strain A2, EA (10% ethanol extract) with POLB): 1 µg/mL
combined-use MIC (strain A2, EA (60% ethanol extract) + POLB combined): 0.5 µg/mL
combined-use MIC (strain A2, EA (95% ethanol extract) + POLB combined): 0.5 µg/mL
combined-use MIC (strain A2, EA (water extract) with POLB): 1 µg/mL
single-use MIC (strain A2, EA=60% ethanol extract): 2 µg/mL
single-use MIC (strain A2, EA=95% ethanol extract): 2 µg/mL
combined-use MIC (strain A3, EA (10% ethanol extract) with POLB): 1 µg/mL
combined-use MIC (strain A3, EA (60% ethanol extract) + POLB combined): 1 µg/mL
combined-use MIC (strain A3, EA (95% ethanol extract) + POLB combined): 1 µg/mL
combined-use MIC (strain A3, EA (water extract) with POLB): 0.5 µg/mL
single-use MIC (strain A3, EA=60% ethanol extract): 2 µg/mL
single-use MIC (strain A3, EA=95% ethanol extract): 2 µg/mL
combined-use MIC (strain A4, EA (10% ethanol extract) with POLB): 1 µg/mL
combined-use MIC (strain A4, EA (60% ethanol extract) + POLB combined): 1 µg/mL
combined-use MIC (strain A4, EA (95% ethanol extract) + POLB combined): 1 µg/mL
combined-use MIC (strain A4, EA (water extract) with POLB): 0.5 µg/mL
single-use MIC (strain A4, EA=60% ethanol extract): 2 µg/mL
single-use MIC (strain A4, EA=95% ethanol extract): 2 µg/mL
single-use MIC (strain A5 (printed AS in tables A43, A45), EA=95% ethanol extract): 4 µg/mL
combined-use MIC (strain A5, EA (10% ethanol extract) with POLB): 1 µg/mL
combined-use MIC (strain A5, EA (60% ethanol extract) + POLB combined): 2 µg/mL
combined-use MIC (strain A5, EA (water extract) with POLB): 0.5 µg/mL
single-use MIC (strain A5, EA=60% ethanol extract): 4 µg/mL
combined-use MIC (strain A6, EA (10% ethanol extract) with POLB): 1 µg/mL
combined-use MIC (strain A6, EA (60% ethanol extract) + POLB combined): 2 µg/mL
combined-use MIC (strain A6, EA (95% ethanol extract) + POLB combined): 2 µg/mL
combined-use MIC (strain A6, EA (water extract) with POLB): 2 µg/mL
single-use MIC (strain A6, EA=60% ethanol extract): 8 µg/mL
single-use MIC (strain A6, EA=95% ethanol extract): 8 µg/mL
combined-use MIC (strain A7, EA (10% ethanol extract) with POLB): 1 µg/mL
combined-use MIC (strain A7, EA (60% ethanol extract) + POLB combined): 2 µg/mL
combined-use MIC (strain A7, EA (95% ethanol extract) + POLB combined): 2 µg/mL
combined-use MIC (strain A7, EA (water extract) with POLB): 1 µg/mL
single-use MIC (strain A7, EA=60% ethanol extract): 4 µg/mL
single-use MIC (strain A7, EA=95% ethanol extract): 4 µg/mL
combined-use MIC (strain A8, EA (10% ethanol extract) with POLB): 0.0625 µg/mL
combined-use MIC (strain A8, EA (60% ethanol extract) + POLB combined): 0.0625 µg/mL
combined-use MIC (strain A8, EA (95% ethanol extract) + POLB combined): 1 µg/mL
combined-use MIC (strain A8, EA (water extract) with POLB): 0.0625 µg/mL
single-use MIC (strain A8, EA=60% ethanol extract): 8 µg/mL
single-use MIC (strain A8, EA=95% ethanol extract): 8 µg/mL
combined-use MIC (strain A9, EA (10% ethanol extract) with POLB): 0.0625 µg/mL
combined-use MIC (strain A9, EA (60% ethanol extract) + POLB combined): 0.0625 µg/mL
combined-use MIC (strain A9, EA (95% ethanol extract) + POLB combined): 0.25 µg/mL
combined-use MIC (strain A9, EA (water extract) with POLB): 0.0625 µg/mL
single-use MIC (strain A9, EA=60% ethanol extract): 1 µg/mL
single-use MIC (strain A9, EA=95% ethanol extract): 1 µg/mL
combined-use MIC (strain A10, EA (10% ethanol extract) with POLB): 4 µg/mL
combined-use MIC (strain A10, EA (60% ethanol extract) + POLB combined): 8 µg/mL
combined-use MIC (strain A10, EA (95% ethanol extract) + POLB combined): 8 µg/mL
combined-use MIC (strain A10, EA (water extract) with POLB): 8 µg/mL
single-use MIC (strain A10, EA=60% ethanol extract): 32 µg/mL
single-use MIC (strain A10, EA=95% ethanol extract): 32 µg/mL
combined-use MIC (strain A11, EA (10% ethanol extract) with POLB): 8 µg/mL
combined-use MIC (strain A11, EA (60% ethanol extract) + POLB combined): 4 µg/mL
combined-use MIC (strain A11, EA (95% ethanol extract) + POLB combined): 4 µg/mL
combined-use MIC (strain A11, EA (water extract) with POLB): 4 µg/mL
single-use MIC (strain A11, EA=60% ethanol extract): 16 µg/mL
single-use MIC (strain A11, EA=95% ethanol extract): 16 µg/mL
combined-use MIC (strain A12, EA (10% ethanol extract) with POLB): 1 µg/mL
combined-use MIC (strain A12, EA (60% ethanol extract) + POLB combined): 0.5 µg/mL
combined-use MIC (strain A12, EA (95% ethanol extract) + POLB combined): 1 µg/mL
combined-use MIC (strain A12, EA (water extract) with POLB): 0.0625 µg/mL
single-use MIC (strain A12, EA=60% ethanol extract): 2 µg/mL
single-use MIC (strain A12, EA=95% ethanol extract): 2 µg/mL
combined-use MIC (strain A13, EA (10% ethanol extract) with POLB): 1 µg/mL
combined-use MIC (strain A13, EA (60% ethanol extract) + POLB combined): 1 µg/mL
combined-use MIC (strain A13, EA (95% ethanol extract) + POLB combined): 1 µg/mL
combined-use MIC (strain A13, EA (water extract) with POLB): 1 µg/mL
single-use MIC (strain A13, EA=60% ethanol extract): 2 µg/mL
single-use MIC (strain A13, EA=95% ethanol extract): 2 µg/mL
combined-use MIC (strain A14, EA (10% ethanol extract) with POLB): 0.0625 µg/mL
combined-use MIC (strain A14, EA (60% ethanol extract) + POLB combined): 0.0625 µg/mL
combined-use MIC (strain A14, EA (95% ethanol extract) + POLB combined): 0.25 µg/mL
combined-use MIC (strain A14, EA (water extract) with POLB): 0.0625 µg/mL
single-use MIC (strain A14, EA=60% ethanol extract): 0.5 µg/mL
single-use MIC (strain A14, EA=95% ethanol extract): 0.5 µg/mL
combined-use MIC (strain A15, EA (10% ethanol extract) with POLB): 1 µg/mL
combined-use MIC (strain A15, EA (60% ethanol extract) + POLB combined): 0.0625 µg/mL
combined-use MIC (strain A15, EA (95% ethanol extract) + POLB combined): 0.0625 µg/mL
combined-use MIC (strain A15, EA (water extract) with POLB): 0.0625 µg/mL
single-use MIC (strain A15, EA=60% ethanol extract): 2 µg/mL
single-use MIC (strain A15, EA=95% ethanol extract): 2 µg/mL
combined-use MIC (strain A16, EA (10% ethanol extract) with POLB): 1 µg/mL
combined-use MIC (strain A16, EA (60% ethanol extract) + POLB combined): 0.0625 µg/mL
combined-use MIC (strain A16, EA (95% ethanol extract) + POLB combined): 0.0625 µg/mL
combined-use MIC (strain A16, EA (water extract) with POLB): 0.0625 µg/mL
single-use MIC (strain A16, EA=60% ethanol extract): 4 µg/mL
single-use MIC (strain A16, EA=95% ethanol extract): 4 µg/mL
combined-use MIC (strain A17, EA (10% ethanol extract) with POLB): 16 µg/mL
combined-use MIC (strain A17, EA (60% ethanol extract) + POLB combined): 2 µg/mL
combined-use MIC (strain A17, EA (95% ethanol extract) + POLB combined): 4 µg/mL
combined-use MIC (strain A17, EA (water extract) with POLB): 2 µg/mL
single-use MIC (strain A17, EA=60% ethanol extract): 64 µg/mL
single-use MIC (strain A17, EA=95% ethanol extract): 64 µg/mL
combined-use MIC (strain A18, EA (10% ethanol extract) with POLB): 1 µg/mL
combined-use MIC (strain A18, EA (60% ethanol extract) + POLB combined): 0.5 µg/mL
combined-use MIC (strain A18, EA (95% ethanol extract) + POLB combined): 1 µg/mL
combined-use MIC (strain A18, EA (water extract) with POLB): 2 µg/mL
single-use MIC (strain A18, EA=60% ethanol extract): 4 µg/mL
single-use MIC (strain A18, EA=95% ethanol extract): 4 µg/mL
combined-use MIC (strain A19, EA (10% ethanol extract) with POLB): 1 µg/mL
combined-use MIC (strain A19, EA (60% ethanol extract) + POLB combined): 0.5 µg/mL
combined-use MIC (strain A19, EA (95% ethanol extract) + POLB combined): 1 µg/mL
combined-use MIC (strain A19, EA (water extract) with POLB): 2 µg/mL
single-use MIC (strain A19, EA=60% ethanol extract): 4 µg/mL
single-use MIC (strain A19, EA=95% ethanol extract): 4 µg/mL
combined-use MIC (strain A20, EA (10% ethanol extract) with POLB): 1 µg/mL
combined-use MIC (strain A20, EA (60% ethanol extract) + POLB combined): 0.5 µg/mL
combined-use MIC (strain A20, EA (95% ethanol extract) + POLB combined): 0.5 µg/mL
combined-use MIC (strain A20, EA (water extract) with POLB): 1 µg/mL
single-use MIC (strain A20, EA=60% ethanol extract): 2 µg/mL
single-use MIC (strain A20, EA=95% ethanol extract): 2 µg/mL
combined-use MIC (strain AS, EA (95% ethanol extract) + POLB combined): 2 µg/mL
